Assay results: patent US8609695B2, “Methods of treating and/or suppressing insulin resistance” (Endorecherche, Inc., priority 1999, dated 2013)

Key:
[1] = test system: ovariectomized female rats; experiment: SERM comparison, energy balance and lipid-lipoprotein metabolism (Example 10); assay type: in vivo, Rattus norvegicus; conditions: OVX rats, 20 days
Procedure, shortened: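 Ovariectomized rats on a high-carbohydrate diet dosed by oral gavage 0.5 mg/rat in 0.4% methylcellulose for 20 days; sham-operated group included. Body weight and food intake every 2 days, DEXA body fat on Day 17. Necropsy on day 21, ~24 h post-dose after 6 h fast: serum lipids, glucose, insulin, leptin, tissue weights.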

[2] = test system: human breast cancer MCF-7 cells; experiment: Proliferation of MCF-7 cell line, DNA content (Example 12); assay type: cell-based
Text: MCF-7 human breast cancer cells were obtained from the American Type Culture Collection # HTB 22 at passage 147 and routinely grown in phenol red-free Dulbecco's Modified Eagle's-Ham's F12 medium, the supplements mentioned above and 5% FBS. The MCF-7 human breast adenocarcinoma cell line was derived from the pleural effusion of a patient. MCF-7 cells were used between passages 148 and 165 and subcultured weekly.
Cells in their late logarithmic growth phase were harvested with 0.1% pancreatin (Sigma) and resuspended in the appropriate medium containing 50 ng bovine insulin/ml and 5% (v/v) FBS treated twice with dextran-coated charcoal to remove endogenous steroids. Cells were plated in 24-well Falcon plastic culture plates (2 cm2/well) at the indicated density and allowed to adhere to the surface of the plates for 72 h. […] Control cells received only the ethanolic vehicle (0.1% EtOH,v/v). Cells were incubated for the specified time intervals with medium changes at 2- or 3-day intervals. Cell number was determined by measurement of DNA content.
Dose-response curves as well IC50 values were calculated using a weighted iterative nonlinear least-squares regression. All results are expressed as means±SEM.

[3] = high carbohydrate diet, 0.5 mg/rat oral gavage

With `CC1=C(c2ccc(O)cc2)[C@H](c2ccc(OCCN3CCCCC3)cc2)Oc2cc(O)ccc21.Cl` [EM-652.HCl, (S)-(+)-7-hydroxy-3-(4′-hydroxyphenyl)-4-methyl-2-(4″-(2′″-piperidino-ethoxy)phenyl)-2H-1-benxopyran hydrochloride] the “Serum insulin (in words)” value ([1]; 0.5 mg/rat) was “decreased”, the “Brown adipose tissue Lipoprotein lipase activity” value [1, 3] was 900 ± 91 μU/g protein and the “Brown adipose tissue weight” value [1, 3] was 0.339 ± 0.038 g. For the same molecule, the Cumulative food intake [1, 3] was 324 ± 5 g, the Serum glucose [1, 3] was 15.9 ± 1.4 mmol/L and the Serum insulin [1, 3] was 0.122 ± 0.021 nmol/L. The Serum leptin [1, 3] was 1.10 ± 0.22 ng/mL, the Serum triglycerides [1, 3] was 0.91 ± 0.17 mmol/L and the “Soleus muscle Lipoprotein lipase activity” value [1, 3] was 14.5 ± 4.1 μU/g protein. It also gave a Soleus muscle weight [1, 3] of 0.118 ± 0.018 g, a Total weight [1, 3] of 252 ± 4 g and a VastusLateralis muscle weight [1, 3] of 1.00 ± 0.047 g. For the same molecule, the “White adipose tissue inguinal Lipoprotein lipase activity” value [1, 3] was 684 ± 216 μU/g protein, the “White adipose tissue inguinal weight” value [1, 3] was 0.244 ± 0.028 g and the “White adipose tissue retroperitoneal Lipoprotein lipase activity” value [1, 3] was 1917 ± 365 μU/g protein. For the same molecule, the “White adipose tissue retroperitoneal weight” value [1, 3] was 1.32 ± 0.21 g, the IC50 ([2]; Homo sapiens, MCF7, read-out: Inhibition of 1 nM E2 stimulation of DNA by tested compounds IC50) was 796 pM and the EC50 ([2]; Homo sapiens, MCF7, MCF-7 cells, text summary of table 12, read-out: EC50 of inhibition (antiestrogen activity)) was 800 pM. For the same molecule, the “Stimulation of DNA by tested compounds % of 1 nM E2 stimulation” value ([2]; MCF-7 cells, absence of E2) was “N.S”.
